From patent US6624140B1, “Synthetic peptides with antimicrobial and endotoxin neutralizing properties for management of the sepsis syndrome” (Academisch Ziekenhuis Bij de Universiteit van Amsterdam …, priority 1997, dated 2003)
No end group written: not given here.

What was measured:
[1] = test system: Gram-negative and Gram-positive bacteria; assay: Anti-microbial activity of analogues and further peptides (bacterium not specified); type: cell-based; details: even at the highest concentration tested (20 μg/ml)
Description: A peptide encompassing a selected LPS-binding domain from a well characterized human antiendotoxin protein, known as bactericidal/permeability increasing protein (BPI), from amino acids 85 to 102, denoted as BPI(85-102), was included for a direct comparison of the efficacy of the endotoxin-binding domain of a naturally occurring protein and the synthetic peptides of the invention. The amino acid sequence of the BPI(85-102) peptide is:
The BPI(85-102) reference peptide was synthesized as previously described for peptides of the invention and provided with a C-terminal Cys residue for the purpose of biotinylation as previously described. […] Incubation of various concentrations of the synthetic peptides according to the invention for a limited time period on the survival of both types of bacteria again illustrated their potent anti-microbial activity as opposed to that of the BPI(85-102) peptide (FIG. 1) with the sequence corresponding to that of the potential LPS binding domain of the native BPI protein. This is indicative of a broad specificity of the synthetic peptides, in keeping with the general bactericidal properties of this class of linear amphipathic α-helical peptides. […]

[2] = Turbidity assay of endotoxin complexation; type: binding, Escherichia coli; details: 2-fold molar excess of synthetic peptide
Protocol: FIG. 2. Endotoxin complexation activity of the synthetic peptides. Peptides at concentrations of 100 to 600 μg/ml were incubated with E. coli D31m4 Re or J5 LPS at 100 μg/ml in a total volume of 100 μl pyrogen-free phosphate buffered saline (PBS) in plastic ELISA microtiter plates for 30 min at 23° C. The turbidity produced by the insoluble peptide-endotoxin complexes was measured at 340 nm. The values represent the mean of three determinations and were corrected for controls containing the same concentrations of endotoxin or peptide.
(§1) Double-immunodiffusion of the peptides of the invention against ‘rough’ R-type E. coli D31m4 Re-LPS (List Biological Laboratories Inc., Calif.) or the structurally more complex ‘smooth’ S-type E. coli 0111:B4 LPS (Sigma Chemical Co., Rockford, Ill.) was performed in 0.8% (w/v) agarose containing 50 mM Tris and 0.1% (w/v) Triton X100, pH 7.5. for 16 h at 20° C. PmB and BPI(85-102) were included as control compounds for comparative purposes. The microprecipitates formed were visualized by Coommassie brilliant blue staining. […] Since the amount of precipitate formed is a function of valency, the peptides of the invention appear to be capable of a high degree of intermolecular binding of LPS molecules via the Lipid A moieties. […] A turbidity assay was employed for a direct comparison of the endotoxin-binding activity or avidity of selected synthetic peptides according to the invention using the ‘rough’ serotypes E. coli Re or Rc (J5) LPS. PmB and BPI(85-102) were included as control compounds for comparative purposes. The degree of precipitation of endotoxin by the synthetic peptides according to the invention was determined by measurement of the optical density of insoluble complexes formed at 340 nm (FIG. 2). In most instances optimal complexation of Re or J5 LPS by the synthetic peptides of the invention was evident at a molar ratio of peptide to endotoxin of 1 to 2. The control BPI(85-102) peptide was required at a 4-fold molar excess for approximately the same degree of complexation. […] There was no significant difference between complexation of Re or the structurally more complex J5-LPS by the synthetic peptides. […] The Lipid A binding affinity of the synthetic peptides were directly compared in a solid-state endotoxin-binding assay. Binding characteristics of biotinylated derivatives of the synthetic peptides BP1, BP2, BP2.1 and the control peptide BPI(85-102) were determined on ELISA microtiter plates coated with E. coli D31m4 Lipid A. Specific binding of the biotinylated peptides to the immobilized Lipid A was determined by development with Streptavidin-HRP and 3, 5, 3′, 5′ tetra-methylbenzidine (TMB) substrate and expressed as the corrected optical density at 450 nm. […] The affinity of the novel synthetic peptide BP2 for endotoxin of increasing complexity as well as the effect of plasma on binding was examined with the use of the ELISA microplate assay.

[3] = Solid-state Lipid A binding ELISA microplate assay; set-up: species or system Escherichia coli; details: biotinylated derivatives; immobilized E. coli D31m4 Lipid A; Scatchard plot
Protocol: FIG. 3. Lipid A binding affinity of the synthetic peptides. Plastic ELISA microtiter plates were coated with purified E. coli D31m4 Lipid A at 1 μg/ml. Incubations were for 20 min with the indicated concentrations of synthetic peptides BP1, BP2 or BP2.1 or control peptide BPI(85-102) followed by streptavidin-HRP at a dilution of 1 in 20 000. Washing steps to remove excess peptide or streptavidin were with 50 mM Tris buffer pH 7.4 containing 0.05% (v/v) Tween 20. Development was with TMB substrate for 10 min. The optical density (O.D) at 450 nm was measured with a microplate reader and values were corrected for non-specific binding which was generally between 5 and 10%. The plotted values are the corrected means of triplicate experiments.
as §1

TNF-α production [4] = assay: TNF-α in whole blood ex vivo after pre-incubation of LPS with peptide; type: cell-based, human; details: 1 to 10 μg/ml pre-incubated with 1 ng/ml LPS, even at lowest concentration 1 μg/ml, 4 h at 37° C.
Protocol: FIG. 11. Effect of pre-incubation of E. coli 0111:B4 LPS with synthetic peptides or Polymyxin B on TNF-α levels in whole blood ex vivo. The indicated amounts of synthetic, control peptides or PmB were pre-incubated with E. coli 0111:B4 LPS at 1 ng/ml for […] at 23° C., added to whole blood containing heparin at 2 I.U/ml and the TNF-α concentrations determined after incubation for 4 h at 37° C. Each value is the mean of triplicate experiments. Controls only contained LPS.
In addition, the LPS-neutralizing activity of selected synthetic peptides of the invention were compared in a more complex environment of whole blood ex vivo to determine the effect of physiological concentrations of blood components such as plasma proteins, blood cells etc. on the detoxification efficacy. In pre-incubation experiments, concentrations of synthetic peptides, control peptide or PmB from 1 to 10 μg/ml were pre-incubated with 1 ng/ml E. coli 0111:B4 LPS in pyrogen-free saline for 30 min at 23° C., added to venous blood containing heparin at 2 I.U/ml as anti-coagulant and incubated for 4 h at 37° C. TNF-α concentrations were determined in appropriately diluted cell-free supernatants as described before.

TNF-α production [5] = assay: TNF-α in whole blood ex vivo, peptide added before LPS challenge; type: cell-based, human; details: 2.5 to 20 μg/ml added 10 min before 1 ng/ml LPS
Protocol: FIG. 12. Effect of pre-challenge addition of synthetic peptides on TNF-a levels induced by E. coli 0111:B4 LPS in whole blood ex vivo. The synthetic peptides BP2, BP2.1 or BP2.2 were added to whole blood containing heparin at 2 I.U/ml at the concentrations indicated and incubated for 10 min at 37° C. TNF-α concentrations were measured after incubation for 4 h at 37° C. subsequent to addition of E. coli 0111:B4 LPS at 1 ng/ml. The values represent the means of triplicate experiments. Controls only contained added LPS.
To determine whether addition of synthetic peptide to whole blood ex vivo prior to endotoxin challenge was effective in endotoxin neutralization assayed in terms of cytokine production, a synthetic peptide of the invention BP2, and the analogues BP2.1 or BP2.2 were added at concentrations of 2.5 to 20 μg/ml to whole blood and incubated for 10 min at 37° C. prior to the addition of 1 ng/ml E. coli 0111:B4 LPS. TNF-α concentrations were determined as previously described. […] The structurally related LPS-binding synthetic peptide analogues BP2.1 and BP2.2 were ineffective in endotoxin neutralization under these conditions.

[6] = Double-immunodiffusion against 0111:B4 LPS; type: binding, Escherichia coli; details: 0.8% agarose, 16 h at 20° C.; data not shown
Protocol: Double-immunodiffusion of the peptides of the invention against ‘rough’ R-type E. coli D31m4 Re-LPS (List Biological Laboratories Inc., Calif.) or the structurally more complex ‘smooth’ S-type E. coli 0111:B4 LPS (Sigma Chemical Co., Rockford, Ill.) was performed in 0.8% (w/v) agarose containing 50 mM Tris and 0.1% (w/v) Triton X100, pH 7.5. for 16 h at 20° C. PmB and BPI(85-102) were included as control compounds for comparative purposes. The microprecipitates formed were visualized by Coommassie brilliant blue staining. […] Since the amount of precipitate formed is a function of valency, the peptides of the invention appear to be capable of a high degree of intermolecular binding of LPS molecules via the Lipid A moieties. […] The degree of precipitation of endotoxin by the synthetic peptides according to the invention was determined by measurement of the optical density of insoluble complexes formed at 340 nm (FIG. 2). […] Binding characteristics of biotinylated derivatives of the synthetic peptides BP1, BP2, BP2.1 and the control peptide BPI(85-102) were determined on ELISA microtiter plates coated with E. coli D31m4 Lipid A. Specific binding of the biotinylated peptides to the immobilized Lipid A was determined by development with Streptavidin-HRP and 3, 5, 3′, 5′ tetra-methylbenzidine (TMB) substrate and expressed as the corrected optical density at 450 nm. […]

[7] = test system: IL-6 inducing ability of E. coli 0111:B4 LPS; assay: Effect of heparin on neutralization of IL-6 inducing ability of LPS; type: cell-based, human; details: heparin 0.1 to 100 I.U/ml
Protocol: FIG. 10. Effect of heparin on the efficacy of neutralization of the IL-6 inducing ability of E. coli 0111:B4 LPS by synthetic peptide or Polymyxin B in whole blood diluted 1 in 10. Synthetic peptides at concentrations of 2 μg/ml or PmB at 1 μg/ml was pre-incubated for 30 min at 37° C. with E. coli 0111:B4 LPS at 1 ng/ml in RPMI medium containing heparin in the concentration range of 0.1 to 100 I.U/ml. The residual cytokine inducing ability of the treated endotoxin was determined in diluted whole blood containing heparin at 2 IU/ml after incubation for 16 h at 37° C. Each value is the mean of triplicate determinations corrected for background. Controls contained only LPS.
The endotoxin neutralizing activities of the synthetic peptides of the invention were evaluated by investigating the effect on LPS-stimulated release of the pro-inflammatory cytokines, tumor necrosis factor alpha (TNF-α), interleukin-6 (IL-6) or interleukin-8 (IL-8) in a well characterized in vitro human whole blood bioassay system. In one series of experiments, dilutions of E. coli 0111:B4 LPS from 0.2 to 1 ng/ml were pre-incubated with synthetic peptides at 10 μg/ml concentrations in RPMI medium for 30 min at 20° C. and added to diluted whole blood. Cytokine concentrations in the supernatants were determined after further incubation for 16 h at 37° C. in the presence of 5% CO2 by specific and sensitive ELISA kits (CLB, Amsterdam, The Netherlands). In another series of experiments, the effects of synthetic peptides at concentrations of 2,5, 5 and 10 μg/ml on IL-6 induction by 1 ng/ml 0111:B4 LPS was examined after simultaneous addition of synthetic peptide and LPS to diluted whole blood. […] The control peptide BPI(85-102) was ineffective in reducing cytokine production under these conditions even at a 4-fold higher concentration. This probably reflects the differences in binding affinity for Lipid A of BP1 and BP2 compared with the BPI(85-102) peptide of approximately 5 and 10-fold, respectively. An additional factor which may have influenced binding of the control peptide to endotoxin is the presence of heparin employed as an anti-coagulant at a concentration of […] in the assay system. […] On this basis, it was predicted that the extent of reduction of endotoxin neutralizing efficacy would be a function of the differences in affinity between peptides for endotoxin and heparin. To verify this hypothesis, a series of experiments to determine the effect of increasing heparin concentrations on the efficacy of endotoxin neutralization during pre-incubation of synthetic peptide and E. coli 0111:B4 LPS were performed. FIG. 10 illustrates a dose-dependent suppression of endotoxin neutralizing activity of the synthetic peptides by heparin as exemplified by a reduction of IL-6 inhibition. […]

[8] = comparison value; cited from earlier work

Row | Substance | anti-microbial activity [1] | avidity order (degree of insoluble peptide-endotoxin complex formation) [2] | apparent binding affinity Ka for Lipid A [3] | inhibition of TNF-α production (TNF-α production [4]) | endotoxin neutralization (TNF-α production) (TNF-α production [5]) | precipitation of 0111 LPS [6] | influence of heparin on LPS-neutralizing activity [7] | Ka for Lipid A of known LPS binding molecule [8]
1 | GKWKLFKKAAKKFLKKCS [BP2.1, analogue similar to the formula] | no detectable anti-microbial activity | BP2.1>BP2.2>BP2>BP1>PmB >BPI(85-102) | 4e+07 M⁻¹ | no significant reduction | ineffective |  |  | 
2 | Polymyxin B [PmB, reference compound] |  | BP2.1>BP2.2>BP2>BP1>PmB >BPI(85-102) |  | almost complete inhibition |  | failed to precipitate | not influenced | 10^7 M^−1
3 | GKLKKKWKAAKKFLKKCS [BP1.1, analogue similar to the formula] | no detectable anti-microbial activity |  |  |  |  |  |  | 
4 | GKWKAFKKAAKKFAKKCS [BP2.2, analogue similar to the formula] |  | BP2.1>BP2.2>BP2>BP1>PmB >BPI(85-102) |  | no significant reduction | ineffective |  |  | 
